Assay results taken from US20230285389A1, “USE OF CSF-1R KINASE INHIBITOR” (Shanghai Runshi Medical Technology Co., Ltd, priority 2020, published 2023).

How the values were obtained:
[1] = cited from earlier work
M-NFS-60 cells = experiment: Proliferation of CSF-1R highly activated mouse myeloid leukemia cell M-NFS-60 (CCK-8); format: cell-based; details: 72 h, read-out: IC50 inhibition of cell proliferation, M-NFS-60
[2] = test system: CSF-1-induced bone marrow-derived macrophages (BMDM); experiment: CSF-1-induced murine-derived macrophage (BMDM) survival (CCK-8); format: cell-based, BALB/c mice; details: Mus musculus, 168 h, murine-derived macrophages, 100 ng/mL CSF-1, 7 days, mean±SD, read-out: IC50 inhibition of cell survival, BMDM (CSF-1)
Protocol: BALB/c mice (female, 6 weeks old, healthy) were sacrificed. Bone marrow cells were taken from their femurs and tibia, and seeded into a 96-well culture plate at appropriate densities (90 µL per well) after erythrobiasis treatment. 100 ng/mL of CSF-1 factor was added to each well to induce macrophages (Bone marrow-derived macrophages, BMDM), and compounds at various concentrations were added and the plate was allowed for incubation for 7 days. A solvent control group (negative control) was set. After 7 day-exposure of the cells to the compounds, 10 µL of CCK-8 reagent was added to each well. The culture plate was placed in an incubator at 37° C. for 2-4 h, and then was read with a full-wavelength microplate reader setting at the wavelength of 450 nm.

[3] = test system: CSF-1-induced human macrophages (PBMC-derived CD14+ monocytes); experiment: Survival of CSF-1-induced human macrophages from PBMC (CCK-8); format: cell-based; details: 168 h; human-derived macrophages, 100 ng/mL CSF-1, 7 days; mean±SD; read-out: IC50 inhibition of cell survival, PBMC (CSF-1)
Protocol: Cryopreserved human-derived peripheral blood (peripheral blood from healthy donors) mononuclear cells (PBMCs) were taken out of liquid nitrogen for recovery. After recovery, the cells were re-suspended at 50 million/mL with the running buffer and DNAase I was added at a final concentration of 100 µg/mL and the plate was allowed for incubation for 15 min at room temperature. After centrifugation at 300 g for 5 min, the supernatant was discarded. The pellet was re-suspended at 50 million cells/mL with the running buffer, and the suspension was filtered through a 70 µM filter screen into a flow tube. The cells were sorted by using CD14+ monocyte negative selection beads sorting kit from […] company. According to the manufacture’s instructions, the specific experimental procedures were as follows.
After cells were re-suspended at 50 million cells/mL, 50 µL of the cocktail was added to each one mL of samples. The samples were incubated at room temperature for 5 min. The magnetic beads were vortexed for 30 sec, and added to the samples. The samples were incubated for further 5 min. The sample volumes were made up to 2.5 mL. The samples were placed on a magnetic frame ([…], #18000) for 2.5 min. […] The plate was placed in an incubator at 37° C. for 2-4 h, and then was read with an adjustable wavelength microplate reader setting at a wavelength of 450 nm.

Yervoy: an anti-CTLA-4 antibody
patients experiencing immune-related adverse events ([1]; treated patients): up to 60%
share of immune-related adverse events that were severe (grade 3-4) ([1]; treated patients): 10-30%

Bavencio: anti-PD-L1 antibody
adverse response in treated patients ([1]; some of the patients): infusion-related response predominantly of grade 1-3 severity

FC(F)(F)c1ccc(CNc2ccc(Cc3c[nH]c4ncc(Cl)cc34)cn2)cn1 [PLX3397, Pexidartinib, reference compound]
IC50 (M-NFS-60 cells): 62.6 ± 15.8 nM
IC50 [2]: 48.9 ± 5.9 nM
IC50 [3]: 237 ± 14.7 nM
black box warning on drug label ([1]; drug label): risk of severe and potentially fatal liver injury
